# From US6987017B2, “Methods for producing L-isoleucine” (Massachusetts Institute of Technology, priority 1999, dated 2006)
# Columns and labels:
# [1] = tested on: AHAS; settings: Eggeling et al. 1987; cited from earlier work
# [2] = tested on: C. glutamicum ATCC 21799 pAPE7 tdcB; type: cell-based, Corynebacterium glutamicum; settings: defined medium with supplement (casamino acids 2 g·l^−1, amino acids 0.5 g·l^−1 each), 150 mg/l IPTG, flasks
# Method: Defined medium for Corynebacterium glutamicum contained the following ingredients (per liter): glucose, 35 g; NaCl, 2 g; citrate (trisodium salt, dihydrate), 3 g; CaCl2.2H2O, 0.1 g; MgSO4.7H2O, 0.5 g; Na2EDTA.2H2O, 75 mg; FeSO4.7H2O, 50 mg; 100× salt solution, 20 ml; K2HPO4, 4 g; KH2PO4, 2 g; (NH4)2SO4, 7.5 g; urea, 3.75 g; leucine 0.85 g; thiamine, 0.45 mg; biotin, 0.45 mg; pantothenic acid, 4.5 mg (pH 7.0). The salt solution contained the following ingredients (per liter): MnSO4, 200 mg; Na2B4O7.10H2O, 20 mg; (NH4)6Mo7O24.4H2O, 10 mg; FeCl3.6H2O, 200 mg; ZnSO4.7H2O, 50 mg; CuCl2.2H2O, 20 mg (pH 2.0). When appropriate, kanamycin (150 mg/liter) and isopropyl-β-D-thiogalactopyranoside (IPTG) (150 mg/l) was used.
# For the growth study with amino acid supplements, the defined medium was complemented with Bacto® casamino acids (Difco, Detroit, Mich.) at a concentration of 2 g·l^−1 or with amino acid (alanine, glycine, methionine or valine) at a concentration of 0.5 g·l^−1 each.
# Valine and methionine were chosen to test due to their direct connection with the isoleucine pathway, and alanine and glycine for their indirect connection through the use of pyruvate, which is also a substrate for the isoleucine pathway.
# [3] = molecular target: T1, endogenous threonine dehydratase (encoded by ilvA) (Corynebacterium glutamicum, UniProt Q04513); settings: C. glutamicum MH20-22B; Morbach et al. 1995; cited from earlier work
# T1 construct: host or cells: Corynebacterium glutamicum MH20-22B
# T1 sequence (Q04513 1-436): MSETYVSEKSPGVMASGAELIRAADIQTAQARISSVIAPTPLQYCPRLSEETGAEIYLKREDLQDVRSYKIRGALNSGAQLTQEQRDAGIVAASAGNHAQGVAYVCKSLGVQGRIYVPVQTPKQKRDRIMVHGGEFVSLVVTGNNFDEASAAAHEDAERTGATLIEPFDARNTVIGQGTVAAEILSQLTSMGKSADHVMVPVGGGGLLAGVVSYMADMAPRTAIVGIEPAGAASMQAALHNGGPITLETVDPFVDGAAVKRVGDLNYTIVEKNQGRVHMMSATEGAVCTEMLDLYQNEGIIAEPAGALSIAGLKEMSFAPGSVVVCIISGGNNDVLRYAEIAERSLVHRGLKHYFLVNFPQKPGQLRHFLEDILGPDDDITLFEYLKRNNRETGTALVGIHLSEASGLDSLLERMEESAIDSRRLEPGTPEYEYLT
# [4] = molecular target: T2, Anabolic threonine dehydratase (Corynebacterium glutamicum, UniProt Q04513); test: Isoleucine sensitivity of anabolic (native) threonine dehydratase in crude extracts of C. glutamicum ATCC21799; type: biochemical; settings: ATCC 21799 crude extract
# T2 construct: endogenous in cells; host or cells: Corynebacterium glutamicum ATCC 21799; cell-free crude extract
# Method: (§1) Enzyme assays were performed with cell free crude extracts, prepared by the following method. Cells were harvested by centrifugation for 10 min at 5000×g at 4° C. and washed with 10 ml of the enzyme assay buffer (100 mM Tris-HCl, pH 7.5, containing 20 mM KCl, 5 mM MnSO4, 0.1 mM EDTA, and 2 mM dithiothreitol) (Jetten, M. S. M., et al., Appl. Microbiol. Biotechnol. 41:47-52 (1994)). The cell pellet was resuspended in the same buffer containing a protease inhibitor cocktail (Boehringer Mannheim, Germany) so that the final concentration was 20 g dry cell weight·l^−1. Resuspended cells were disrupted with a glass bead mixer (5100 Mixer-Mill, SPEX, Metuchen, N.J.). […] Protein concentrations were determined by the method of Bradford (Bradford, M. M., Anal. Biochem. 72:248-254 (1976)) with the Bio-Rad (Hercules, Calif.) protein assay kit using bovine serum albumin as a standard.
# (§2) For determination of threonine dehydratase activity, the assay mixture contained 40 mM threonine, 1 mM pyridoxal phosphate, crude extract and 100 mM potassium phosphate buffer, pH 8.0 in a final volume of 1 ml. […] After a 15 min incubation at room temperature, the amount of alpha-ketobutyrate formed at various intervals was measured spectrophotometrically as its semicarbazone derivative at 254 nm (=0.52 mmol·cm^−1). […]
# [5] = molecular target: T3, catabolic threonine dehydratase (Escherichia coli, UniProt P0AGF6); test: Isoleucine sensitivity of catabolic threonine dehydratase (tdcB) in crude extracts of C. glutamicum ATCC 21799 (pAPE7); type: biochemical, E. coli
# T3 construct: tdcB and ilvA coding regions were amplified by the Polymerase Chain Reaction (PCR); expressed in transfected cells; host or cells: Corynebacterium glutamicum ATCC 21799 carrying pAPE7 (trc:tdcB); cell-free crude extract
# Method: Enzyme assays were performed with cell free crude extracts, prepared by the following method. Cells were harvested by centrifugation for 10 min at 5000×g at 4° C. and washed with 10 ml of the enzyme assay buffer (100 mM Tris-HCl, pH 7.5, containing 20 mM KCl, 5 mM MnSO4, 0.1 mM EDTA, and 2 mM dithiothreitol) (Jetten, M. S. M., et al., Appl. Microbiol. Biotechnol. 41:47-52 (1994)). The cell pellet was resuspended in the same buffer containing a protease inhibitor cocktail (Boehringer Mannheim, Germany) so that the final concentration was 20 g dry cell weight·l^−1. Resuspended cells were disrupted with a glass bead mixer (5100 Mixer-Mill, SPEX, Metuchen, N.J.). 2.5 ml of bacterial suspension was poured in a frozen steel vial containing 5 g of cold 106 μm-diameter glass beads (Sigma) and one stainless steel ball bearing. The vials containing bacterial suspension and glass beads were vigorously shaken at 4° C. using the mixer by 10 cycles of 30 sec shaking separated by rest cycles of one minute. Cell debris were removed by centrifugation for 20 min at 47000×g at 4° C. The supernatant (crude extract) was then tested for enzyme activity. Protein concentrations were determined by the method of Bradford (Bradford, M. M., Anal. Biochem. 72:248-254 (1976)) with the Bio-Rad (Hercules, Calif.) protein assay kit using bovine serum albumin as a standard.
# as §2
# In order to confirm the insensitivity to isoleucine of catabolic dehydratase expressed in a lysine producing strain of C. glutamicum, threonine dehydratase activities were measured in crude extracts of strains ATCC21799 and ATCC21799 carrying pAPE7 at different concentrations of isoleucine (FIG. 3). […]
# [6] = molecular target: mutated threonine dehydratase V323A (Corynebacterium glutamicum, UniProt Q04513, V323A); settings: 50 mM isoleucine; Morbach et al. 1995; cited from earlier work
# [7] = molecular target: T4, tdcB gene product (Escherichia coli, UniProt P0AGF6); test: Threonine dehydratase activity of E. coli AB1255 (pAPE5) crude extracts in the presence of isoleucine; type: biochemical; settings: isoleucine up to 47 mM; consistent activity
# T4 construct: tdcB and ilvA coding regions were amplified by the Polymerase Chain Reaction (PCR); expressed in transfected cells; host or cells: E. coli AB1255 carrying pAPE5 (pTrc99a-based, trc:tdcB); cell-free crude extract
# Method: as §1, §2
# [8] = tested on: C. glutamicum ATCC 21799 harboring pAPE13; test: IPTG induction of threonine dehydratase in batch fermentation of ATCC 21799 (pAPE13); type: cell-based, Corynebacterium glutamicum; settings: IPTG 150 mg/l added at 1.5 g cell dry weight·l^−1
# Method: (§3) For determination of threonine dehydratase activity, the assay mixture contained 40 mM threonine, 1 mM pyridoxal phosphate, crude extract and 100 mM potassium phosphate buffer, pH 8.0 in a final volume of 1 ml. The reaction was started with the addition of threonine and terminated by the addition of 1 ml solution containing 1% semicarbazide and 0.9% sodium acetate. After a 15 min incubation at room temperature, the amount of alpha-ketobutyrate formed at various intervals was measured spectrophotometrically as its semicarbazone derivative at 254 nm (=0.52 mmol·cm^−1). Relevant standards and controls were carried out in the same manner. For specific determination of catabolic threonine dehydratase activity, the assay mixture contained 20 mM isoleucine in order to inhibit the anabolic threonine dehydratase.
# (§4) In FIGS. 3-6, the results of the enzymatic assays are expressed in terms of relative expression of threonine dehydratase compared to wild type expression as the ratio between the specific activity of the enzyme of a strain and the specific activity of the wild type. Each assay was replicated five times, and the results were reproducible within 15%.
# (§5) Starter cultures of Corynebacterium glutamicum were prepared by transferring one colony from LB agar plates to 5 ml of LB medium. These cultures were incubated for two days at 30° C. and 200 rpm. […]
# [9] = tested on: C. glutamicum ATCC 21799; test: IPTG addition in batch fermentation of wild type ATCC 21799; type: cell-based, Corynebacterium glutamicum; settings: wild type culture, IPTG 150 mg/l
# Method: as §3
# In FIGS. 3-6, the results of the enzymatic assays are expressed in terms of relative expression of threonine dehydratase compared to wild type expression as the ratio between the specific activity of the enzyme of a strain and the specific activity of the wild type. […]
# C. glutamicum ATCC 21799 was grown twice in defined medium in a 4-liter reactor. […] A concentration of isoleucine of 50 mg·l^−1 was detected at the end of both cultures. Oxygenation of the cultures being sufficient, neither lactate nor acetate was detected during the fermentation.
# [10] = tested on: C. glutamicum ATCC 21799 harboring pAPE7; test: IPTG induction of catabolic threonine dehydratase in batch fermentation of ATCC 21799 (pAPE7); type: cell-based, Corynebacterium glutamicum; settings: IPTG 150 mg/l
# Method: as §3, §4, §5
# T3 sequence (P0AGF6 whole entry): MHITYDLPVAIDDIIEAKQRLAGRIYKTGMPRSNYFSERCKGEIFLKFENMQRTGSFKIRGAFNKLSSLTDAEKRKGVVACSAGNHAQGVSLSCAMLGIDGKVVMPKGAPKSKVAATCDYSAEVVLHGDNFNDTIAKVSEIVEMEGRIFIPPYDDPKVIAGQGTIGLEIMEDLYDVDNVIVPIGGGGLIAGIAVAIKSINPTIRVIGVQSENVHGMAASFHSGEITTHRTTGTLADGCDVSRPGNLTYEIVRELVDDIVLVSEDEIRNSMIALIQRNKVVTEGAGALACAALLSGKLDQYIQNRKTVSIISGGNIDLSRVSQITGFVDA
# Sequence of mutated threonine dehydratase V323A (Q04513 whole entry V323A): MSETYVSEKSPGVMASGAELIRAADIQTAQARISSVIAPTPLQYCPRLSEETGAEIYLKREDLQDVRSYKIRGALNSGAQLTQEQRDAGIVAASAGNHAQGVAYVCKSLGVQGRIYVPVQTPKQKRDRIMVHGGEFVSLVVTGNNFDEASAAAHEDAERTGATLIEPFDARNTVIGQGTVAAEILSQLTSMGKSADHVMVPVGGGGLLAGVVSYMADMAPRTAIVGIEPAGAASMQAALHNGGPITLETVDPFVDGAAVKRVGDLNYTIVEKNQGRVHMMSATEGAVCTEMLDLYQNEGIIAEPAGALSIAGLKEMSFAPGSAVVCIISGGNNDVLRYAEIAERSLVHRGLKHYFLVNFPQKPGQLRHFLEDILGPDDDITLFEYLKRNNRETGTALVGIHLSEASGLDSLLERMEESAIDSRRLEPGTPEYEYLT
# T4 sequence (P0AGF6 whole entry): as the sequence (P0AGF6 whole entry) above
structure (smiles),measurement,setting,value
CCC(=O)C(=O)O [alpha-ketobutyrate],affinity of AHAS for alpha-ketobutyrate relative to pyruvate,[1],3 fold
"CC(C)[C@H](N)C(=O)O [Valine, valine]",Specific growth rate,[2],0.24 h⁻¹
CC[C@H](C)[C@H](N)C(=O)O [isoleucine],isoleucine concentration giving complete inhibition of the endogenous threonine dehydratase,[3],5 mM
same,isoleucine concentration that totally inhibits the native (anabolic) threonine dehydratase,[4],15 mM
same,remaining activity at 50000 µM,"[5]; 50 mM isoleucine, read-out: remaining activity of catabolic threonine dehydratase of E. coli",70 to 80%
same,inhibition at 200000 µM,[5]; 200 mM isoleucine,40%
same,retained original activity of catabolic threonine dehydratase,[5]; 200 mM isoleucine,60%
same,remaining activity of mutated threonine dehydratase V323A,[6],22%
same,threonine dehydratase activity of AB1255 (pAPE5) extracts in the presence of isoleucine,[7],about 80 μmol product·min^−1·mg protein^−1
"CC(C)S[C@@H]1O[C@H](CO)[C@H](O)[C@H](O)[C@H]1O [IPTG, isopropyl-β-D-thiogalactopyranoside]",increase in the level of threonine dehydratase after addition of IPTG,[8],20 fold
same,effect of IPTG addition on threonine dehydratase,[9],did not lead to an increase
same,catabolic threonine dehydratase concentration relative to original enzyme after addition of IPTG,[10],15 fold
"NCC(=O)O [Glycine, glycine]",Specific growth rate,[2],0.17 h⁻¹
"C[C@H](N)C(=O)O [Alanine, alanine]",Specific growth rate,[2],0.17 h⁻¹
"CSCC[C@H](N)C(=O)O [Methionine, methionine]",Specific growth rate,[2],0.26 h⁻¹
